Active and inactive are the calls of the source. The calls are words filed in the database; no cut-off is given here.
Experiments:
Type in all cases: functional, cell-based
Conditions in all cases: Oocyte
[1] = molecular target: Neuronal acetylcholine receptor subunit alpha-7 (Homo sapiens) (UniProt P36544); assay: Agonist activity to alpha7 nAChR expressed in Xenopus oocytes assessed as response current at 100 uM by two-electrode voltage clamp relative to acetylcholine
[2] = molecular target: Neuronal acetylcholine receptor; alpha4/beta2 (Homo sapiens) (UniProt P17787+P43681); assay: Agonist activity to alpha4beta2 nAChR expressed in Xenopus oocytes assessed as response current at 100 uM by two-electrode voltage clamp relative to acetylcholine
[3] = molecular target: Acetylcholine receptor subunit alpha (Homo sapiens) (UniProt P02708); assay: Agonist activity to alpha-1-beta-1-epsilon-delta nAChR expressed in Xenopus oocytes assessed as response current at 100 uM by two-electrode voltage clamp relative to acetylcholine
[4] = molecular target: Neuronal acetylcholine receptor subunit alpha-7 (Homo sapiens) (UniProt P36544); assay: Agonist activity to alpha7 nAChR expressed in Xenopus oocytes assessed as response current by two-electrode voltage clamp relative to acetylcholine
[5] = molecular target: Neuronal acetylcholine receptor; alpha3/beta4 (Homo sapiens) (UniProt P30926+P32297); assay: Agonist activity to alpha3beta4 nAChR expressed in Xenopus oocytes assessed as response current at 100 uM by two-electrode voltage clamp relative to acetylcholine
[6] = molecular target: Neuronal acetylcholine receptor subunit alpha-7 (Homo sapiens) (UniProt P36544); assay: Agonist activity to alpha7 nAChR expressed in Xenopus oocytes assessed as response current at 1mM by two-electrode voltage clamp relative to acetylcholine

Sequence of Acetylcholine receptor subunit alpha (Homo sapiens) (P02708 whole entry): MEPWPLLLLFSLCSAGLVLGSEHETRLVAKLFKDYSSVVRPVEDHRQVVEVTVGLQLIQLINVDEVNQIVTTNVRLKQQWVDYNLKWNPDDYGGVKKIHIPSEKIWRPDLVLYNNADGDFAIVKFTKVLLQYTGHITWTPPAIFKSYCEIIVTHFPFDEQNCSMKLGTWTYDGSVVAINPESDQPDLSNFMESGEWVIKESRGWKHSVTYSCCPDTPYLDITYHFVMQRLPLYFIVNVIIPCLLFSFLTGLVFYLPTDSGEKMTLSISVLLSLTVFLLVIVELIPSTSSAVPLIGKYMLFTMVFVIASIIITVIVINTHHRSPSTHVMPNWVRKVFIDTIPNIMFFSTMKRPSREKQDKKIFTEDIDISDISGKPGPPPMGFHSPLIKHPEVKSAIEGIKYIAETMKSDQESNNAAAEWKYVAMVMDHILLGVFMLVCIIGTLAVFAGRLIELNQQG
Sequence of Neuronal acetylcholine receptor subunit alpha-7 (Homo sapiens) (P36544 whole entry): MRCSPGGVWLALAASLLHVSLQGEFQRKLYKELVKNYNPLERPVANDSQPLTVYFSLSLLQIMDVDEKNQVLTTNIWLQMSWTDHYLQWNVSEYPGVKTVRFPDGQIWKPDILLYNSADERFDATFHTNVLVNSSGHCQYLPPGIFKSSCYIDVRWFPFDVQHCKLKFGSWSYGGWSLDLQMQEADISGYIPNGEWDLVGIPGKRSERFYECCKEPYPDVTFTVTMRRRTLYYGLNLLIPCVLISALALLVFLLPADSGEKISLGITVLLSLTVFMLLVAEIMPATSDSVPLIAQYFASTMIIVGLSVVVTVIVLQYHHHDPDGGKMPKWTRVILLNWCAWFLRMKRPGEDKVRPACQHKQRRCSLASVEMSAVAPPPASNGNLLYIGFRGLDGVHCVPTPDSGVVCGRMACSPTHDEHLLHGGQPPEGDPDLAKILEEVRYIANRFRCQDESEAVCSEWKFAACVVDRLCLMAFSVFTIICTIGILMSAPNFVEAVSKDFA

| SMILES | Activity [1] | Activity [2] | Activity [3] | ED50 [4] | Activity [5] | Activity [6] |
| --- | --- | --- | --- | --- | --- | --- |
| C(=C1/CCCN=C1c1cccnc1)/c1cccnc1 | 35% | inactive | inactive | 100 µM | – | – |
| C(=C1/CCCN=C1c1cccnc1)/c1cc[nH]c1 | 40% | – | – | – | 5% | – |
| C(=C1/CCCN=C1c1cccnc1)/c1ccncc1 | – | inactive | inactive | – | – | < 20% |
| C(=C1/CCCN=C1c1cccnc1)/c1ccccn1 | – | inactive | inactive | – | – | < 20% |
| C(=C1/CCCN=C1c1cccnc1)/c1ccc[nH]1 | 40% | inactive | inactive | – | – | – |

— ChEMBL document CHEMBL1154541, “Synthesis of H-bonding probes of alpha7 nAChR agonist selectivity” (Bioorg Med Chem Lett, 2009)
